These results are taken from US20110009493A1 (priority 2008, published 2011).

The test system of experiment [1] is Pseudomonas aeruginosa. The experiment is described as follows: Bacterial testing, ISO-GRID membrane filter system. Format: cell-based. The conditions noted are these: 400 ppm hard water; for Results (percent kill) / Results Log10 Reduction: 1 minute contact, 5% organic soil, bacteria 6.81 log10 (CFU/g); for Kill of Pseudomonas aeruginosa (in words): 1 minute, 5% soil. Here is the method:
• Bacteria (gram negative): Pseudomonas aeruginosa • Pathogenesis: Opportunistic pathogen in humans, cause of 1 in 10 nosocomial infections^1, causes wound, blood, burn, urinary tract, lung and ear infections. ^1http://textbookofbacteriology.net/pseudomonas.html • Concentration of Bacteria: 6.81 log10 (CFU/g) • Solution Contact Time: 1 minute • Dilution media: hard water (400 ppm) • Bio burden: 5% organic soil
The tests were performed using the ISO-GRID™ membrane filter system (Neogen Corp., Lansing, Mich., USA) according to a slightly modified procedure described in the ISO-GRID™ Methods Manual (3rd Ed.; QA Life Sciences, Inc., San Diego, Calif., USA; 1999).

Experiment [2] concerns Mycobacterium bovis. The class given is cell-based.
Setting [3] is: ten minutes contact, 5% fetal bovine serum.
Where [4] appears, read: ten minutes contact, 5% fetal bovine serum, 5.8*10^5 CFU/carrier.

Like-named read-outs stand apart in the source and are kept apart here.

As for “Didecyldimethylammonium bicarbonate/carbonate [compound 3]”, in experiment [1], the “Results (percent kill)” value is 87.4% and the “Results Log10 Reduction” value is 5.95 Log10.

Regarding “didecyldimethylammomum bicarbonate/carbonate [1.]”, in experiment [2], the “Pass/Fail (Intermediate 30 day read)” value is reported as “Fail” and the “Results (Intermediate 30 day read)” value is 1/10.

`O=Cc1ccccc1C=O` [OPA, orthophthalaldehyde]: in experiment [1], the “Kill of Pseudomonas aeruginosa (in words)” value is given as “Neither OPA nor DDABC alone were sufficient to kill all”. Also, the “Kill of Mycobacterium bovis (in words)” value in experiment [2] (setting [3]) is given as “neither OPA, nor DDABC alone was sufficient to provide complete kill”.

Regarding `O=Cc1ccccc1C=O` [compound 4, Orthophthalaldehyde], in experiment [1], the “Results (percent kill)” value is listed as 40.2% and the “Results Log10 Reduction” value stood at 2.74 Log10.

In the case of `O=Cc1ccccc1C=O` [2., Orthophthalaldehyde], in experiment [2] (setting [4]), the “Pass/Fail (Intermediate 30 day read)” value is “Fail” and the “Results (Intermediate 30 day read)” value was 1/10.

In the case of “didecyldimethylammonium bicarbonate/carbonate [DDABC]”, the “Kill of Pseudomonas aeruginosa (in words)” value in experiment [1] is listed as “Neither OPA nor DDABC alone were sufficient to kill all”. In addition, in experiment [2] (setting [3]), the “Kill of Mycobacterium bovis (in words)” value was “neither OPA, nor DDABC alone was sufficient to provide complete kill”.
